Laboratory results published in patent US7087620B2, “Liquid pharmaceutical formulations containing 3,7-diazabicyclo[3,3,1]nonane compounds and methods of treatment relating to anti-arrhythmic events” (Solvay Pharmaceuticals GmbH, priority 2002, dated 2006).

Columns and labels:
Format in all cases: in vivo, human
AF/AFL patients = assay: Single infusion over 10 minutes in AF/AFL patients; settings: intravenous doses of up to 0.24 mg/kg TEDI base, infused over 10 minutes
[1] = test system: patients with atrial fibrillation; assay: Placebo-controlled ascending dose study of intravenous tedisamil: conversion to normal sinus rhythm, patients with atrial fibrillation; settings: for Conversion to NSR at any time within 2.5 hrs after the start of infusion (patients converted out of total) / Conversion to NSR at any time within 2.5 hrs and remaining in NSR until 2.5 hrs after the start of infusion (patients out of total) / Conversion to NSR at any time within 2.5 hrs and remaining in NSR until 2.5 hrs after the start of infusion (percentage of patients) / Conversion to NSR at any time within 2.5 hrs and remaining in NSR until 24 hrs after the start of infusion (patients out of total) / Conversion to NSR at any time within 2.5 hrs and remaining in NSR until 24 hrs after the start of infusion (percentage of patients) / Conversion to NSR at any time within 24 hrs after the start of infusion (patients out of total) / Conversion to NSR at any time within 24 hrs after the start of infusion (percentage of patients) / Conversion to NSR at any time within 24 hrs and remaining in NSR until 24 hrs after the start of infusion (patients out of total) / Conversion to NSR at any time within 24 hrs and remaining in NSR until 24 hrs after the start of infusion (percentage of patients): patients with atrial fibrillation; for Percentage of patients converted to normal sinus rhythm at any time within 2.5 hours after the initiation of the infusion: patients with atrial fibrillation taking beta-blockers
Method: (§1) A Multi-Center, Double-Blind, Randomized, Placebo-Controlled, Sequential Ascending Dose Groups Study to evaluate the Efficacy and Safety of Intravenous Tedisamil in the Rapid Conversion to Normal Sinus Rhythm in Patients with Atrial Fibrillation or Flutter was performed.
(§2) • Tedisamil (0.4 mg/kg body weight) • Tedisamil (0.6 mg/kg body weight) • Placebo • Dosages were given as a 30 minute intravenous infusion regimen. 1. Study Design
(§3) This multicenter trial was a double-blind, randomized, placebo-controlled, ascending dose groups study comparing the efficacy and safety of intravenous tedisamil treatment versus placebo in symptomatic patients with atrial fibrillation or flutter (>3 hours and <48 hours). The primary efficacy endpoint of this study was the termination of atrial fibrillation or flutter (for at least 60 seconds) within 2.5 hours after start of the infusion.
(§4) Following screening and baseline assessments, eligible patients were randomized to tedisamil or placebo with a sequential dose escalation approach. In the first stage, patients received 0.4 mg tedisamil/kg body weight or placebo over a 30 minutes infusion period, with half the dose infused during the first 10 minutes and half the dose infused over the remaining 20 minutes. After interim safety evaluation, in the second stage, patients received 0.6 mg tedisamil/kg body weight or placebo, with the same infusion regimen.
(§5) Patients were discharged from the telemetry unit 24 hours post infusion and safety follow up was to be obtained after 28 days. Blinded reviews of 12-lead ECGs (including 60 seconds rhythm strip) and 24 hour Holters to adjudicate the clinical endpoint (conversion to normal sinus rhythm) were performed centrally according to standard guidelines.
(§6) Tedisamil dihydrochloride, 0.4 mg/kg body weight, 0.6.mg/kg body weight was administered intravenously. The total infusion time was 30 minutes, with half the dose infused within 10 minutes, and half the dose infused within the remaining 20 minutes.
(§7) The percentage of patients converted to normal sinus rhythm (for at least 60 seconds) at any time within 2.5 hours after the initiation of the infusion of study drug.
6.1.2 Secondary Efficacy • The percentage of patients converted to normal sinus rhythm (for at least 60 seconds) at any time within 2.5 hrs and remaining in sinus rhythm until 2.5 hours after initiation of the intravenous infusion of tedisamil versus placebo. • The percentage of patients converted to normal sinus rhythm (for at least 60 seconds) at any time within 24 hours after initiation of the intravenous infusion of tedisamil versus placebo. • The percentage of patients converted to normal sinus rhythm (for at least 60 seconds) at any time within 24 hrs and remaining in sinus rhythm until 24 hours after initiation of the intravenous infusion of tedisamil versus placebo. • The percentage of patients converted to normal sinus rhythm (for at least 60 seconds) at any time within 2.5 hrs and remaining in sinus rhythm until 24 hours after initiation of the intravenous infusion of tedisamil versus placebo. • The time to conversion after the start of the infusion of tedisamil versus placebo. • The dose- and concentration-response relationships of tedisamil versus placebo.
The intent-to-treat patient sample was analyzed for efficacy. All tests were two-sided and a p-value <0.05 was considered significant. Differences in percentages of conversion were compared among the treatment groups using the Pearson chi-square statistic. Safety analysis was conducted on the safety patient sample. Numbers and percentages of patients with adverse events were calculated for each treatment group, using MedDRA preferred terms and body systems. Descriptive statistics were summarized by treatment group for changes from baseline in QT, heart rate and blood pressure. […]

[2] = test system: patients with atrial fibrillation or flutter; assay: Placebo-controlled ascending dose study of intravenous tedisamil: conversion to normal sinus rhythm, overall (atrial fibrillation or flutter); settings: for Conversion to NSR at any time within 2.5 hrs after start of infusion (%) / Conversion to NSR at any time within 2.5 hrs after start of infusion (converted/total): Overall, ITT patient sample, patients with DC cardioversion excluded
Method: as §1, §2, §3, §4, §5, §6, §7
The intent-to-treat patient sample was analyzed for efficacy. All tests were two-sided and a p-value <0.05 was considered significant. Differences in percentages of conversion were compared among the treatment groups using the Pearson chi-square statistic. Safety analysis was conducted on the safety patient sample. Numbers and percentages of patients with adverse events were calculated for each treatment group, using MedDRA preferred terms and body systems. Descriptive statistics were summarized by treatment group for changes from baseline in QT, heart rate and blood pressure.
This first clinical study was a Multi-Center, Double-Blind, Randomized, Placebo-Controlled, Sequential Ascending Dose Groups Study to evaluate the Efficacy and Safety of Intravenous Tedisamil in the Rapid Conversion to Normal Sinus Rhythm in Patients with Atrial Fibrillation or Flutter. The active ingredient used was tedisamil dihydrochloride. The study was designed as a phase II study and executed in 35 to 40 centers in 3 to 4 countries. Study duration: Screening: up to 48 hours; treatment (in-patient): single 30-minute infusion; safety follow up: 24 hours (in-patient) with continuous telemetry and 28 day safety follow up.
The following methodology was applied: A multi-center, double-blind, randomized, placebo-controlled, sequential ascending dose groups study to evaluate the efficacy and safety of intravenous tedisamil versus placebo. The study drug was infused over 30 minutes, receiving half the dose within 10 minutes and half the dose within the remaining 20 minutes. The first patient group received 0.4 mg/kg bodyweight (bw), infused as 0.2 mg/kg bw within 10 minutes, continued with 0.2 mg/kg bw infused within 20 minutes. […]

[3] = 0.4 mg/kg iv two-step 30 minute infusion
[4] = 0.6 mg/kg iv two-step 30 minute infusion
[5] = Atrial Fibrillation, Female, 0.4 mg/kg, ITT patient sample, patients with DC cardioversion excluded
[6] = Atrial Fibrillation, Female, 0.6 mg/kg, ITT patient sample, patients with DC cardioversion excluded
[7] = Atrial Fibrillation, Male, 0.4 mg/kg, ITT patient sample, patients with DC cardioversion excluded
[8] = Atrial Fibrillation, Male, 0.6 mg/kg, ITT patient sample, patients with DC cardioversion excluded
[9] = atrial fibrillation, Female, <65 yrs, 0.4 mg/kg, ITT, DC cardioversion excluded
[10] = atrial fibrillation, Female, <65 yrs, 0.6 mg/kg, ITT, DC cardioversion excluded
[11] = atrial fibrillation, Female, >=65 yrs, 0.4 mg/kg, ITT, DC cardioversion excluded
[12] = atrial fibrillation, Female, >=65 yrs, 0.6 mg/kg, ITT, DC cardioversion excluded
[13] = atrial fibrillation, Male, <65 yrs, 0.4 mg/kg, ITT, DC cardioversion excluded
[14] = atrial fibrillation, Male, <65 yrs, 0.6 mg/kg, ITT, DC cardioversion excluded
[15] = atrial fibrillation, Male, >=65 yrs, 0.4 mg/kg, ITT, DC cardioversion excluded
[16] = atrial fibrillation, Male, >=65 yrs, 0.6 mg/kg, ITT, DC cardioversion excluded

**Q.** What does the source list for C1CCC2(C1)C1CN(CC3CC3)CC2CN(CC2CC2)C1 [Tedisamil, N,N′-dicyclopropylmethyl-9,9-tetramethylene-3,7-diazabicyclo[3,3,1]nonane]?
**A.** Conversions in AF/AFL patients (AF/AFL patients): did not produce any conversions; Conversion to NSR at any time within 2.5 hrs after the start of infusion (patients converted out of total) [1, 3]: 24 out of 52; Conversion to NSR at any time within 2.5 hrs and remaining in NSR until 2.5 hrs after the start of infusion (patients out of total) [1, 3]: 23 out of 52; Conversion to NSR at any time within 2.5 hrs and remaining in NSR until 2.5 hrs after the start of infusion (percentage of patients) [1, 3]: (44%); Conversion to NSR at any time within 2.5 hrs and remaining in NSR until 24 hrs after the start of infusion (patients out of total) [1, 3]: 22 out of 42; Conversion to NSR at any time within 2.5 hrs and remaining in NSR until 24 hrs after the start of infusion (percentage of patients) [1, 3]: (52%); Conversion to NSR at any time within 24 hrs after the start of infusion (patients out of total) [1, 3]: 26 out of 42; Conversion to NSR at any time within 24 hrs after the start of infusion (percentage of patients) [1, 3]: (62%); Conversion to NSR at any time within 24 hrs and remaining in NSR until 24 hrs after the start of infusion (patients out of total) [1, 3]: 24 out of 42; Conversion to NSR at any time within 24 hrs and remaining in NSR until 24 hrs after the start of infusion (percentage of patients) [1, 3]: (57%); Conversion to NSR at any time within 2.5 hrs after the start of infusion (patients converted out of total) [1, 4]: 24 out of 42; Conversion to NSR at any time within 2.5 hrs and remaining in NSR until 2.5 hrs after the start of infusion (patients out of total) [1, 4]: 24 out of 42; Conversion to NSR at any time within 2.5 hrs and remaining in NSR until 2.5 hrs after the start of infusion (percentage of patients) [1, 4]: (57%); Conversion to NSR at any time within 2.5 hrs and remaining in NSR until 24 hrs after the start of infusion (patients out of total) [1, 4]: 22 out of 37; Conversion to NSR at any time within 2.5 hrs and remaining in NSR until 24 hrs after the start of infusion (percentage of patients) [1, 4]: (59%); Conversion to NSR at any time within 24 hrs after the start of infusion (patients out of total) [1, 4]: 26 out of 37; Conversion to NSR at any time within 24 hrs after the start of infusion (percentage of patients) [1, 4]: (70%); Conversion to NSR at any time within 24 hrs and remaining in NSR until 24 hrs after the start of infusion (patients out of total) [1, 4]: 24 out of 37; Conversion to NSR at any time within 24 hrs and remaining in NSR until 24 hrs after the start of infusion (percentage of patients) [1, 4]: (65%); Conversion to NSR at any time within 2.5 hrs after start of infusion (%) [1, 5]: 35.3%; Conversion to NSR at any time within 2.5 hrs after start of infusion (converted/total) [1, 5]: 6/17; Conversion to NSR at any time within 2.5 hrs after start of infusion (%) [1, 6]: 37.5%; Conversion to NSR at any time within 2.5 hrs after start of infusion (converted/total) [1, 6]: 6/16; Conversion to NSR at any time within 2.5 hrs after start of infusion (%) [1, 7]: 51.4%; Conversion to NSR at any time within 2.5 hrs after start of infusion (converted/total) [1, 7]: 18/35; Conversion to NSR at any time within 2.5 hrs after start of infusion (%) [1, 8]: 69.2%; Conversion to NSR at any time within 2.5 hrs after start of infusion (converted/total) [1, 8]: 18/26; Conversion to NSR at any time within 2.5 hrs after start of infusion (%) [1, 9]: 40.0%; Conversion to NSR at any time within 2.5 hrs after start of infusion (converted/total) [1, 9]: 2/5; Conversion to NSR at any time within 2.5 hrs after start of infusion (%) [1, 10]: 33.3%; Conversion to NSR at any time within 2.5 hrs after start of infusion (converted/total) [1, 10]: 1/3; Conversion to NSR at any time within 2.5 hrs after start of infusion (%) [1, 11]: 33.3%; Conversion to NSR at any time within 2.5 hrs after start of infusion (converted/total) [1, 11]: 4/12; Conversion to NSR at any time within 2.5 hrs after start of infusion (%) [1, 12]: 38.5%; Conversion to NSR at any time within 2.5 hrs after start of infusion (converted/total) [1, 12]: 5/13; Conversion to NSR at any time within 2.5 hrs after start of infusion (%) [1, 13]: 50.0%; Conversion to NSR at any time within 2.5 hrs after start of infusion (converted/total) [1, 13]: 10/20; Conversion to NSR at any time within 2.5 hrs after start of infusion (%) [1, 14]: 72.2%; Conversion to NSR at any time within 2.5 hrs after start of infusion (converted/total) [1, 14]: 13/18; Conversion to NSR at any time within 2.5 hrs after start of infusion (%) [1, 15]: 51.4%; Conversion to NSR at any time within 2.5 hrs after start of infusion (converted/total) [1, 15]: 8/15; Conversion to NSR at any time within 2.5 hrs after start of infusion (%) [1, 16]: 62.5%; Conversion to NSR at any time within 2.5 hrs after start of infusion (converted/total) [1, 16]: 5/8; Percentage of patients converted to normal sinus rhythm at any time within 2.5 hours after the initiation of the infusion ([1]; 0.4 mg group): 52%; Percentage of patients converted to normal sinus rhythm at any time within 2.5 hours after the initiation of the infusion ([1]; 0.6 mg group): 60%; Conversion to NSR at any time within 2.5 hrs after start of infusion (%) ([2]; Female, 0.4 mg/kg): 31.6%; Conversion to NSR at any time within 2.5 hrs after start of infusion (converted/total) ([2]; Female, 0.4 mg/kg): 6/19; Conversion to NSR at any time within 2.5 hrs after start of infusion (%) ([2]; Female, 0.6 mg/kg): 36.4%; Conversion to NSR at any time within 2.5 hrs after start of infusion (converted/total) ([2]; Female, 0.6 mg/kg): 8/22; Conversion to NSR at any time within 2.5 hrs after start of infusion (%) ([2]; Male, 0.4 mg/kg): 45.2%; Conversion to NSR at any time within 2.5 hrs after start of infusion (converted/total) ([2]; Male, 0.4 mg/kg): 19/42; Conversion to NSR at any time within 2.5 hrs after start of infusion (%) ([2]; Male, 0.6 mg/kg): 61.3%; Conversion to NSR at any time within 2.5 hrs after start of infusion (converted/total) ([2]; Male, 0.6 mg/kg): 19/31; Gender difference in conversion rate ([2]; first study (Phase II), tedisamil dihydrochloride): male patients show a higher conversion rate compared to women; Conversion rates on extension of infusion beyond the times indicated ([2]; in vivo): did not produce higher conversion rates; Average time to cardioversion after the start of tedisamil administration ([2]; patients with atrial fibrillation or flutter of up to 48 hours duration, iv two-step infusion): 35 min; Conversion of atrial fibrillation and flutter to NSR (in words) ([2]; two-step infusion regimen): effective in conversion of atrial fibrillation and flutter to NSR
